In brackets after ≈: the same amount, converted by molar mass.
What was measured:
[1] = system: Alternaria tenuis; assay: MIC on agar, Alternaria tenuis; assay type: cell-based; details: Alternaria alternata, 336 h, beerwort/peptone agar, 28° C., 2 weeks
Experimental: (§1) N-(Dichlorofluoromethylthio)-3,4-dimethylmaleimide is added in concentrations of 0.1 mg/l to 5,000 mg/l to an agar prepared from beerwort and peptone. After storage at 28° C. and 60 to 70% relative atmospheric humidity for 2 weeks, the MIC is determined. The MIC is the lowest concentration of active compound at which no growth at all of the species of microbe used takes place, and is given in the following table.

[2] = system: Aspergillus niger; assay: MIC on agar, Aspergillus niger; assay type: cell-based; details: 336 h, beerwort/peptone agar, 28° C., 2 weeks
Experimental: as §1

[3] = system: Aureobasidium pullulans; assay: MIC on agar, Aureobasidium pullulans; assay type: cell-based; details: 336 h, beerwort/peptone agar, 28° C., 2 weeks
Experimental: as §1

[4] = system: Chaetomium globosum; assay: MIC on agar, Chaetomium globosum; assay type: cell-based; details: 336 h, beerwort/peptone agar, 28° C., 2 weeks
Experimental: as §1

[5] = system: Coniophora puteana; assay: MIC on agar, Coniophora puteana; assay type: cell-based; details: 336 h, beerwort/peptone agar, 28° C., 2 weeks
Experimental: as §1

[6] = system: Lentinus tigrinus; assay: MIC on agar, Lentinus tigrinus; assay type: cell-based; details: 336 h, beerwort/peptone agar, 28° C., 2 weeks
Experimental: as §1

[7] = system: Penicillium glaucum; assay: MIC on agar, Penicillium glaucum; assay type: cell-based; details: 336 h, beerwort/peptone agar, 28° C., 2 weeks
Experimental: as §1

[8] = system: Polyporus versicolor; assay: MIC on agar, Polyporus versicolor; assay type: cell-based; details: Trametes versicolor, 336 h, beerwort/peptone agar, 28° C., 2 weeks
Experimental: as §1

[9] = system: Sclerophoma pityophila; assay: MIC on agar, Sclerophoma pityophila; assay type: cell-based; details: Sydowia polyspora, 336 h, beerwort/peptone agar, 28° C., 2 weeks
Experimental: as §1

[10] = system: Trichoderma viride; assay: MIC on agar, Trichoderma viride; assay type: cell-based; details: 336 h, beerwort/peptone agar, 28° C., 2 weeks
Experimental: as §1

[11] = system: slime organisms; assay: Action against slime organisms; assay type: cell-based; details: 504 h; slime organisms (about 10^6 germs/ml), Allens nutrient solution, room temperature, 3 weeks
Experimental: N-(Dichlorofluoromethylthio)-3,4-dimethylmaleimide (dissolved in a little acetone) is used in concentrations of in each case 0.1 to 100 mg/l in Allens nutrient solution (Arch. Mikrobiol. 17, 34 to 53 (1952)), which contains, in 4 l of sterile water, 0.2 g of ammonium chloride, 4.0 g of sodium nitrate, 1.0 g of dipotassium hydrogen phosphate, 0.2 g of calcium chloride, 2.05 g of magnesium sulphate, 0.02 g of iron chloride and 1% of caprolactam. Shortly beforehand, the nutrient solutions are infected with slime organisms (about 10^6 germs/ml) which have been isolated from spinning water circulations used in the production of polyamide. Nutrient solutions which contain the minimum inhibitory concentration (MIC) or higher concentrations of active compound are still completely clear after culture at room temperature for 3 weeks, that is to say the marked increase in microbes and slime formation noticeable after 3 to 4 days in nutrient solutions containing no active compound are absent.

[12] = system: Aspergillus niger, Aureobasidium pullulans, Alternaria tenuis, Penicillim citrinum, Stachybotrys atra, Paecilamyces varioti, Cladosporium herbarum, Aspergillus …; assay: Test as a paint fungicide (mould-resistance of paint films, Report 219 of the Defense Standards Laboratories); details: alkyd resin lacquer paint containing 0.8% of compound based on weight of film; also after ageing (running water 24° C. 24 h, fresh air 40° to 60° C. 8 days, dry Xenon test 110 h); evaluated after 3 weeks at 28° to 30° C.
Experimental: The testing is carried out in accordance with the method in Report 219 of the Defense Standards Laboratories Maribyrnong/Australia, as follows: A smooth card is coated on both sides with the paint to be tested and dried at room temperature for 8 days. For ageing, part of the paint film is kept in running water of 24° C. for 24 hours, or aerated with fresh air of 40° to 60° C. for 8 days, or subjected to a dry Xenon test for 110 hours. 5×5 cm sections of the samples thus prepared are placed individually on a glucose nutrient medium in Petri dishes and contaminated with a spore suspension of the following fungi: Aspergillus niger, Aureobasidium pullulans, Alternaria tenuis, Penicillim citrinum, Stachybotrys atra, Paecilamyces varioti, Cladosporium herbarum, Aspergillus ustus and Aspergillus flavus.
The contaminated dishes are kept at 28° to 30° C. and 90 to 95% relative atmospheric humidity, and are evaluated after 3 weeks. Paint films are regarded as mould-resistant if the samples remain free from fungi after these tests.
A commercially available lacquer paint based on alkyd resin is tested for mould-resistance by the above-mentioned test method.

CC1=C(C)C(=O)N(SC(F)(Cl)Cl)C1=O [N-(dichlorofluoromethylthio)-3,4-dimethylmaleimide]
MIC [1]: 0.75 µg/mL (≈ 2.91 µM) | MIC [2]: 50 µg/mL (≈ 194 µM) | MIC [3]: 0.5 µg/mL (≈ 1.94 µM) | MIC [4]: 50 µg/mL (≈ 194 µM) | MIC [5]: 0.75 µg/mL (≈ 2.91 µM) | MIC [6]: 1.5 µg/mL (≈ 5.81 µM) | MIC [7]: 5 µg/mL (≈ 19.4 µM) | MIC [8]: 7.5 µg/mL (≈ 29.1 µM) | MIC [9]: 1 µg/mL (≈ 3.87 µM) | MIC [10]: 100 µg/mL (≈ 387 µM) | MIC [11]: 7.5 µg/mL (≈ 29.1 µM) | mould-resistance of paint films [12]: mould-resistant

From patent publication US4645776A, “N-(dichlorofluoromethylthio)-3,4-dimethylmaleimide and its use as a fungicide” (Bayer Aktiengesellschaft, priority 1984, dated 1987)
